By CC50 is commonly meant the concentration that lowers cell viability or growth by half. A word on the EC50: it is the concentration giving half of the maximal effect.

“Also recorded” adds a separate entry of the source. Like-named read-outs stand apart in the source and are kept apart here.

These results are taken from publication PMC6271609, “Secondary Metabolites from Vietnamese Marine Invertebrates with Activity against Trypanosoma brucei and T. cruzi” (Molecules, 2014).

One series concerns T. brucei rhodesiense. Details: method as in PMID 21157686. The note with it: cited from earlier work.
Another series relates to Plasmodium falciparum. Details: method as in PMID 21157686. The following applies: cited from earlier work.
The nature of series [1]: Cytotoxicity assay, resazurin, HEK293T. Type of series: cell-based, human. The following applies: human. How it is done: (§1) HEK293T and HepG2 cells were cultured at 37 °C with 5% CO2 in Dulbecco’s modified eagle medium containing 10% FBS. Both cell types were plated individually in 384 well plates for testing the natural compounds at 3-fold dilution from 100 µM in 10-points concentration and incubated for 3 days. To determine viability, 10.0 µL of a 280 µM solution of resazurin sodium salt in water was added to the cells in the assay plate for at least 5 h (final concentration, 40.0 µM of resazurin) and resazurin reduction was measured with a Victor 3^TM fluorimeter (PerkinElmer) at 530 nmEx/590 nmEm.
(§2) The acquired images from the high content intracellular T. cruzi screening were subjected to in-house software to quantify cell numbers, parasite numbers, and infection ratio as previously described. Each compound’s activity was normalized based on values of drug positive and negative control (120 nM of pentamidine for T. brucei and T. cruzi assays, 83.0 µM of chlorpromazine for cytotoxicity, and DMSO as 0% drug activity for negative control). Dose response curves were fitted by sigmoidal dose-response with variable slope, equation described as Y = Bottom + (Top − Bottom)/(1 + 10^(LogEC5 − X) − HillSlpe) using GraphPad Prism 6 Software (GraphPad Software, Suite 230 La Jolla, CA, USA).
(The colour change of resazurin is a common sign of viable cells or microbes.)

The nature of series [2]: Cytotoxicity assay, resazurin, HepG2. The class given is cell-based, human. The note with it: human. How it is done: as §1, §2
In series [3] the test system is T. brucei strain 427 bloodstream forms. Nature of the series: Anti-trypanosomal activity on T. brucei, resazurin dose response. Type of series: cell-based, Trypanosoma brucei. The note with it: for SI (Selectivity index): relative to HEK293T and HepG2 cells vs T. brucei. As to the method: T. brucei strain 427 bloodstream forms were cultivated at 37 °C with 5% CO2 in HMI-9 medium supplemented with 10% FBS. Cultivated parasites (2,500) were seeded in 384 well plates with the natural compounds and incubated for 3 days. After the incubation, the parasites were exposed to 120 µM of resazurin sodium salt (10.0 µL of a 720 µM solution in water) for 5 h. Then, the parasites were fixed with 4% PFA and the assay plates were read by Victor 3™ (PerkinElmer, Waltham, MA, USA) at 530 nmEx/590 nmEm. Pentamidine was used as a reference drug and DMSO 0.5% was used as a drug-negative control.
as §2

The test system of the next series is HEK293T cells. Nature of the series: Cytotoxicity assay, resazurin, HEK293T. The following applies: pure compounds up to 100 µM. Type of series: cell-based, human. How it is done:
as §1, §2

In a further series the test system is HepG2 cells. As to the kind of experiment: Cytotoxicity assay, resazurin, HepG2. The note with it: pure compounds up to 100 µM. Type of series: cell-based, human. How it is done:
as §1, §2

The next series concerns U2OS human cell. Nature of the series: Host cell number in the T. cruzi high content image assay. The class given is cell-based. The note with it: 50.0 μM, 48 h, U2OS infected with T. cruzi. How it is done:
(§3) The assay for activity against T. cruzi Y strain was performed as previously described. Briefly, T. cruzi parasites were maintained in form of Tissue Culture Trypomastigote (TCT) by circulation in LLC-MK2 cell line (CCL-7, ATTC, Manassas, VA, USA). Seven days after the infection, the supernatant containing TCT parasites was collected and used to reinfect new cultures of LLC-MK2. The U2OS human cell (HTB-96, ATCC), cultivated in DMEM-high glucose media supplemented with 10% heat inactivated FBS, was used for the in vitro assay preparation. The cells were infected with the TCT form of T. cruzi. A homogeneous mixture of parasites and cells in DMEM-low glucose media, supplemented with 2% heat inactivated FBS, and was seeded into 384-well plates at 50.0 µL/well. The test compounds (final concentration of 50.0 µM) were added in 10.0 µL of 6% DMSO (final concentration, 1% DMSO) and the cells were incubated for 48 h at 37 °C, 5% CO2. After the incubation, the cells and parasites were fixed with 4% PFA and stained with 5.0 µM Draq5. Fluorescent images were acquired from each assay well using an Operetta microscope (Perkin Elmer).
The acquired images from the high content intracellular T. cruzi screening were subjected to in-house software to quantify cell numbers, parasite numbers, and infection ratio as previously described. […]

The test system of series [4] is intracellular amastigotes of T. cruzi Y strain. Nature of the series: Anti-trypanosomal activity on intracellular T. cruzi Y strain, high content image assay. The note with it: for activity against intracellular T. cruzi (in words): 50.0 µM; for decrease of parasite survival / reduction of parasites growth compared to the DMSO control: 50.0 μM, 48 h, U2OS host cells. Type of series: cell-based, Trypanosoma cruzi. As to the method:
as §3, §2

The mark [5] stands for this setting: HEK293T cells, HEK293T, 3 days, highest concentration 100 µM, read-out: Cytotoxicity CC50 Values HEK293T.
The mark [6] stands for this setting: HepG2 cells, HepG2, 3 days, highest concentration 100 µM, read-out: Cytotoxicity CC50 Values HepG2.
Where [7] appears, read: Trypanosoma brucei, 72 h, bloodstream forms, 3 days incubation, resazurin, read-out: T. brucei EC50 Values.

Consider `C/C1=C\CC/C(C)=C/C[C@](O)(C(C)C)CC/C(C)=C/CC1` [serratol], for which the “activity against T. brucei rhodesiense (in words)” value in the series on T. brucei rhodesiense is listed as “active”. The “activity against Plasmodium falciparum (in words)” value in the series with Plasmodium falciparum was “active”.

Turning to `CC(C)CCC[C@@H](C)[C@H]1CC[C@@H]2[C@]1(C)CC[C@@H]1[C@@]3(C)CC[C@H](O)C[C@@H]3[C@@H](C=O)[C@]12O` [Compound 3, astropectenol A], the 50% cytotoxic concentration (CC50) at 3 days in [1] (setting [5]) and in [2] (setting [6]) was above 100 µM in each case. The EC50 in series [3] (setting [7]) was 1.17 ± 0.14 µM; in [3] (bloodstream forms, 3 days incubation, resazurin, read-out: T. brucei EC50 Values), 1.57 ± 0.14 µM. Moreover, the “SI (Selectivity index)” value in series [3] is recorded as above 63.7.

For `N=C(N)c1ccc(OCCCCCOc2ccc(C(=N)N)cc2)cc1` [Pentamidine, reference compound], the CC50 at 3 days in series [1] (setting [5]) and in [2] (setting [6]) was below 0.4 µM throughout. The half-maximal effective concentration (EC50) in [3] (setting [7]) is 0.015 ± 0.003 µM. Besides, the “SI (Selectivity index)” value in series [3] is reported as below 26.7; in [3] (listed as pentamidine) it was 26.7.

With `C=C1CO[C@H]2/C=C(\C)CC[C@@H]3O[C@]3(C)CC/C=C(\C)CC[C@@]12O` [Compound 1, laevigatol B], the cytotoxic concentration (CC50) at 3 days in series [1] (setting [5]) and in series [2] (setting [6]) was above 100 µM throughout. The “cytotoxicity on HEK293T (in words)” value with HEK293T cells is reported as “did not display cytotoxicity”. Besides, the “cytotoxicity on HepG2 (in words)” value with HepG2 cells was “did not display cytotoxicity”. In addition, in the series with U2OS human cell, the “reduction of the host cells” value worked out at 33%. For the same compound, the “activity against intracellular T. cruzi (in words)” value in [4] is given as “significant activity; also recorded: significant inhibitory effects; also recorded: active”. Also, the “decrease of parasite survival / reduction of parasites growth compared to the DMSO control” value in series [4] was determined as 84.8%. Besides, the EC50 in series [3] (setting [7]) stood at 5.34 ± 0.47 µM; in [3] (Trypanosoma brucei, bloodstream forms, resazurin, read-out: T. brucei EC50) it was 1.69 ± 0.12 µg/mL. In series [3], the “SI (Selectivity index)” value is above 18.7.

As for `CC(C)[C@@H](C)CC[C@@H](C)[C@H]1CC[C@H]2[C@@H]3CCC4=CC(=O)CC[C@]4(C)[C@H]3CC[C@]12C` [Compound 2, (24S)-ergost-4-ene-3-one], the CC50 at 3 days in series [1] (setting [5]) and in series [2] (setting [6]) was above 100 µM throughout. Further, the EC50 in [3] (setting [7]) is 5.47 ± 0.27 µM. In addition, the “SI (Selectivity index)” value in series [3] is above 18.3.

Regarding `CC(C)CCC[C@@H](C)[C@H]1CC[C@H]2C3=C(CC[C@]12C)[C@@]1(C)CC[C@H](O)C[C@]1(O)[C@H](O)[C@H]3O` [Compound 4, cholest-8-ene-3β,5α,6β,7α-tetraol], the CC50 at 3 days in series [1] and in series [2] was above 100 µM throughout. For the same compound, the half-maximal effective concentration (EC50) in [3] (setting [7]) came out at 14.6 ± 1.36 µM. Also, in [3], the “SI (Selectivity index)” value is above 6.8.

`CN(C)CCCN1c2ccccc2Sc2ccc(Cl)cc21` [Chlorpromazine, reference compound]: the results for the 50% cytotoxic concentration (CC50) at 3 days in series [1] (setting [5]) and in series [2] (setting [6]) were 19.9 ± 3.48 µM and 16.5 ± 0.45 µM, respectively.

Consider `CC(C)CCC[C@@H](C)[C@H]1CCC2=C3[C@H](O)C[C@H]4C[C@@H](O)CC[C@]4(C)[C@H]3CC[C@@]21C` [Compound 5, 5α-cholest-8(14)-ene-3β,7α-diol], for which, in series [1] (HEK293T, 3 days, highest concentration 100 µM, read-out: Cytotoxicity CC50 Values HEK293T), the CC50 at 3 days is above 100 µM. Besides, the “cytotoxicity on HEK293T (in words)” value with HEK293T cells is “did not show any cytotoxicity”. The CC50 at 3 days in series [2] (HepG2, 3 days, highest concentration 100 µM, read-out: Cytotoxicity CC50 Values HepG2) was above 100 µM. Besides, the “cytotoxicity on HepG2 (in words)” value in the series with HepG2 cells is listed as “did not show any cytotoxicity”. For the same compound, the “reduction of the host cells” value in the series on U2OS human cell is reported as “not significantly reduced”. Also, in series [4], the “activity against intracellular T. cruzi (in words)” value was “significant activity; also recorded: significant inhibitory effects; also recorded: active” and the “decrease of parasite survival / reduction of parasites growth compared to the DMSO control” value was 97.1%. The EC50 in series [3] (Trypanosoma brucei, 72 h, read-out: T. brucei EC50 Values) was above 30 µM. Moreover, the “activity against T. brucei (in words)” value in series [3] (bloodstream forms) was “inactive”.
